Data set [1] has as its target T1, human calcitonin receptor (Homo sapiens, UniProt P30988).
T1 construct: expressed in transfected cells; host or cells: BHK570
T1 sequence (P30988 25-474): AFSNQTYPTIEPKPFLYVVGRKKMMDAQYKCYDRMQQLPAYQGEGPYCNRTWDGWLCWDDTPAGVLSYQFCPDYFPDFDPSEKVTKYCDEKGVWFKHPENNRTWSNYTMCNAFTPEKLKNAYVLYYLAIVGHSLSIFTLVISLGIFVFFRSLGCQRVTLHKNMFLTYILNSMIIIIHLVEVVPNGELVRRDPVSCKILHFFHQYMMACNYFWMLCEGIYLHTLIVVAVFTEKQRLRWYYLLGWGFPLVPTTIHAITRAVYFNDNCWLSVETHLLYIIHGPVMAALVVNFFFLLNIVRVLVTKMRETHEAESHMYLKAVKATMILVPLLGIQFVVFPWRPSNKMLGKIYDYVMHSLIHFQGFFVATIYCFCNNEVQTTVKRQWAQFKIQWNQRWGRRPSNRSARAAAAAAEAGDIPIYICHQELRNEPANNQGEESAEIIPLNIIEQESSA
Nature of the data set: Assay (II)a functional CRE-luciferase assay, human calcitonin receptor. The settings on record: Table 7; human calcitonin (CTa) receptor. The format is cell-based.

The target of data set [2] is T2, human amylin receptor (amylin 3(a) receptor: human calcitonin receptor + RAMP-3) (Homo sapiens, UniProt O60896+P30988).
T2 construct: expressed in transfected cells; host or cells: BHK570
T2 sequence (P30988 25-474): T1 sequence (P30988 25-474)
T2 sequence (O60896 24-148 partner): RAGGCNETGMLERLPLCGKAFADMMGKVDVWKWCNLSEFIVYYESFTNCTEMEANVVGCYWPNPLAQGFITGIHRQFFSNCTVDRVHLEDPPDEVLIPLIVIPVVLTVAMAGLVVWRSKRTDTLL
Nature of the data set: Assay (II)a functional CRE-luciferase assay, human amylin receptor. It is filed as cell-based. The settings on record: Table 2; BHK amylin 3(a)-receptor/CRE-luc cells.

The nature of data set [3]: Assay (IV) determination of solubility. It is filed as physicochemical. In short, it runs like this:
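Solubility is measured across pH 3.0–8.0 by mixing a ~500 nmol/ml aqueous polypeptide stock 1:1 with 100 mM glycylglycine or bistrispropane buffers. Samples stand 18 hours at room temperature, then are centrifuged and the soluble concentration is determined by HPLC.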

The nature of data set [4]: Assay (III) ThT fibrillation assay for physical stability. It is filed as physicochemical. In short, it runs like this:
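Freshly prepared formulations, pH-adjusted, with 1 μM ThT; four or eight replicates incubated at 37 °C under 960 rpm orbital shaking. Fluorescence (ex 444/em 485 nm) read every 20 min; […]. Peptide concentration measured by RP-HPLC before and after the run.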

Setting [5] is: bistrispropane buffer, pH 6, pH 6.0, read-out: Solubility pH 6.0.
Where [6] appears, read: bistrispropane buffer, pH 6.5, pH 6.5, read-out: Solubility pH 6.5.
[7] abbreviates: bistrispropane buffer, pH 7, pH 7.0, 18 hours at room temperature, Table 3, read-out: Solubility pH 7.0.
Where [8] appears, read: bistrispropane buffer, pH 7, pH 7.0, read-out: Solubility pH 7.0.
Where [9] appears, read: bistrispropane buffer, pH 7.5, pH 7.5, read-out: Solubility pH 7.5.
The mark [10] stands for this setting: bistrispropane buffer, pH 8, pH 8.0, read-out: Solubility pH 8.0.
The mark [11] stands for this setting: glycylglycine buffer, pH 3, pH 3.0, read-out: Solubility pH 3.0.
[12] abbreviates: glycylglycine buffer, pH 4, pH 4.0, 18 hours at room temperature, Table 2, read-out: Solubility pH 4.0.
Setting [13] is: glycylglycine buffer, pH 4, pH 4.0, read-out: Solubility pH 4.0.
The mark [14] stands for this setting: glycylglycine buffer, pH 5, pH 5.0, read-out: Solubility pH 5.0.

≈ marks a conversion by molar mass, not a printed value. Read-outs that look alike come from different tables or passages of the source. Starred links: 1 amine or outer side, 2 acyl side, 3 side chain; linkers in the order of their positions; H or OH if unused. Positions of bridges follow the written chain, without caps; N, C: chain ends. Residues, ends and D or L forms follow the SMILES beside them. *: point of attachment. C20 diacid = O=C(O)CCCCCCCCCCCCCCCCCCC(=O)*; C18 diacid = O=C(O)CCCCCCCCCCCCCCCCC(=O)*; γGlu = O=C(O)[C@H](CCC(=O)[*:2])N[*:1]

As a reminder, the EC50 is the concentration at which the effect is half-maximal. The solubility is the concentration that dissolves in the medium under given conditions.

On to `CC[C@H](C)[C@H](NC(=O)[C@@H]1CCCN1C(=O)CNC(=O)[C@H](Cc1ccccc1)NC(=O)[C@H](CC(N)=O)NC(=O)[C@H](CCC(N)=O)NC(=O)[C@H](CO)NC(=O)[C@H](CO)NC(=O)[C@H](Cc1c[nH]cn1)NC(=O)[C@H](Cc1c[nH]cn1)NC(=O)[C@H](CC(C)C)NC(=O)[C@H](Cc1ccccc1)NC(=O)[C@H](CCC(=O)O)NC(=O)[C@H](C)NC(=O)[C@H](CC(C)C)NC(=O)[C@H](CCCNC(=N)N)NC(=O)[C@H](CCC(N)=O)NC(=O)[C@@H](NC(=O)[C@H](C)NC(=O)[C@@H]1CSSC[C@H](NC(=O)CNC(=O)CC[C@H](NC(=O)CCCCCCCCCCCCCCCCCCC(=O)O)C(=O)O)C(=O)N[C@@H](CC(N)=O)C(=O)N[C@@H]([C@@H](C)O)C(=O)N[C@@H](C)C(=O)N[C@@H]([C@@H](C)O)C(=O)N1)[C@@H](C)O)C(=O)N[C@@H](CC(C)C)C(=O)N1CCC[C@H]1C(=O)N1CCC[C@H]1C(=O)N[C@H](C(=O)N[C@@H](CC(N)=O)C(=O)N[C@H](C(=O)NCC(=O)N[C@@H](CO)C(=O)N[C@@H](CCC(N)=O)C(=O)N[C@H](C(=O)N1CCC[C@H]1C(N)=O)[C@@H](C)O)C(C)C)[C@@H](C)O` [Example 137, N-alpha-[(S)-4-Carboxy-4-(19-carboxynonadecanoylamino)butyryl]-[Gly1,Glu14,His17,Gln21,Gln35,Pro37]-pramlintide] ({C20 diacid-γGlu}-GCNTATCATQRLAEFLHHSSQNFGPILPPTNVGSQTP-NH2; disulfide 2-7), for which the EC50 in data set [1] was 72 pM; in data set [2], 121 pM. Moreover, the solubility at 18 h in data set [3] (setting [5]) was 192 µM (≈ 835 µg/mL); in data set [3] (setting [6]), over 200 µM; in data set [3] (setting [7]), over 200 µM; in data set [3] (bistrispropane buffer, pH 7, pH 7.0, Table 8, read-out: Solubility pH 7.0), over 200 µM; in data set [3] (setting [8]), over 200 µM; in data set [3] (setting [9]) it was over 200 µM. The solubility at 18 h in data set [3] (setting [10]), in data set [3] (setting [11]), in data set [3] (setting [12]), in data set [3] (setting [13]) and in data set [3] (setting [14]) was over 200 µM in each case. Moreover, the “ThT pH 4.0 lag time” value in data set [4] (Table 8) and in data set [4] (ThT fibrillation assay) was 29 h in each case. In data set [4] (ThT fibrillation assay), the “ThT pH 4.0 lag time (h)” value came to 29 h.
Take `CC[C@H](C)[C@H](NC(=O)[C@@H]1CCCN1C(=O)CNC(=O)[C@H](Cc1ccccc1)NC(=O)[C@H](CC(N)=O)NC(=O)[C@H](CC(N)=O)NC(=O)[C@H](CO)NC(=O)[C@H](CO)NC(=O)[C@H](Cc1c[nH]cn1)NC(=O)[C@H](Cc1c[nH]cn1)NC(=O)[C@H](CC(C)C)NC(=O)[C@H](Cc1ccccc1)NC(=O)[C@H](CCC(=O)O)NC(=O)[C@H](C)NC(=O)[C@H](CC(C)C)NC(=O)[C@H](CCCNC(=N)N)NC(=O)[C@H](CCC(N)=O)NC(=O)[C@@H](NC(=O)[C@H](C)NC(=O)[C@@H]1CSSC[C@H](NC(=O)[C@H](CCCCN)NC(=O)[C@H](CCC(=O)O)NC(=O)[C@H](CCC(=O)O)NC(=O)CC[C@H](NC(=O)CCCCCCCCCCCCCCCCCCC(=O)O)C(=O)O)C(=O)N[C@@H](CC(N)=O)C(=O)N[C@@H]([C@@H](C)O)C(=O)N[C@@H](C)C(=O)N[C@@H]([C@@H](C)O)C(=O)N1)[C@@H](C)O)C(=O)N[C@@H](CC(C)C)C(=O)N1CCC[C@H]1C(=O)N1CCC[C@H]1C(=O)N[C@H](C(=O)N[C@@H](CC(N)=O)C(=O)N[C@H](C(=O)NCC(=O)N[C@@H](CO)C(=O)N[C@@H](CC(N)=O)C(=O)N[C@H](C(=O)N[C@@H](Cc1ccc(O)cc1)C(N)=O)[C@@H](C)O)C(C)C)[C@@H](C)O` [Example 41, N-alpha-[(S)-4-Carboxy-4-(19-carboxynonadecanoylamino)butyryl]-Glu-Glu-[Glu14,His17]-pramlintide] ({C20 diacid-γGlu}-EEKCNTATCATQRLAEFLHHSSNNFGPILPPTNVGSNTY-NH2; disulfide 4-9 (inferred)): the concentration for a half-maximal effect (EC50) in data set [1] came to 798 pM; in data set [2] it was 402 pM. Moreover, the solubility at 18 h in data set [3] (setting [5]) is 1 µM (≈ 4.71 µg/mL); in data set [3] (setting [6]), 1 µM (≈ 4.71 µg/mL); in data set [3] (setting [8]), 1 µM (≈ 4.71 µg/mL); in data set [3] (setting [9]), 1 µM (≈ 4.71 µg/mL); in data set [3] (setting [10]), 4 µM (≈ 18.9 µg/mL); in data set [3] (setting [11]), over 200 µM. Also, the solubility at 18 h was determined as 118 µM (≈ 556 µg/mL) in data set [3] (setting [12]), 118 µM (≈ 556 µg/mL) in data set [3] (setting [13]) and 1 µM (≈ 4.71 µg/mL) in data set [3] (setting [14]). Besides, the “ThT pH 4.0 lag time (h)” value in data set [4] (ThT fibrillation assay) is given as 0 h.
Turning to `CC[C@H](C)[C@H](NC(=O)[C@@H]1CCCN1C(=O)CNC(=O)[C@H](Cc1ccccc1)NC(=O)[C@H](CC(N)=O)NC(=O)[C@H](CC(N)=O)NC(=O)[C@H](CO)NC(=O)[C@H](CO)NC(=O)[C@H](Cc1c[nH]cn1)NC(=O)[C@H](Cc1c[nH]cn1)NC(=O)[C@H](CC(C)C)NC(=O)[C@H](Cc1ccccc1)NC(=O)[C@H](CCC(=O)O)NC(=O)[C@H](C)NC(=O)[C@H](CC(C)C)NC(=O)[C@H](CCCNC(=N)N)NC(=O)[C@H](CCC(N)=O)NC(=O)[C@@H](NC(=O)[C@H](C)NC(=O)[C@@H]1CSSC[C@H](NC(=O)[C@H](Cc2c[nH]cn2)NC(=O)[C@H](Cc2c[nH]cn2)NC(=O)CC[C@H](NC(=O)CCCCCCCCCCCCCCCCC(=O)O)C(=O)O)C(=O)N[C@@H](CC(N)=O)C(=O)N[C@@H]([C@@H](C)O)C(=O)N[C@@H](C)C(=O)N[C@@H]([C@@H](C)O)C(=O)N1)[C@@H](C)O)C(=O)N[C@@H](CC(C)C)C(=O)N1CCC[C@H]1C(=O)N1CCC[C@H]1C(=O)N[C@H](C(=O)N[C@@H](CC(N)=O)C(=O)N[C@H](C(=O)NCC(=O)N[C@@H](CO)C(=O)N[C@@H](CC(N)=O)C(=O)N[C@H](C(=O)N[C@@H](Cc1ccc(O)cc1)C(N)=O)[C@@H](C)O)C(C)C)[C@@H](C)O` [Example 47, N-alpha-[(S)-4-Carboxy-4-(17-carboxyheptadecanoylamino)butyryl]-His-[His1,Glu14,His17]-pramlintide] ({C18 diacid-γGlu}-HHCNTATCATQRLAEFLHHSSNNFGPILPPTNVGSNTY-NH2; disulfide 3-8 (inferred); C-terminus assumed), the EC50 in data set [1] worked out at 258 pM; in data set [2], 59 pM. Also, the solubility at 18 h in data set [3] (setting [5]) was 168 µM (≈ 768 µg/mL); in data set [3] (setting [6]), 87 µM (≈ 398 µg/mL); in data set [3] (setting [7]), 118 µM (≈ 540 µg/mL); in data set [3] (setting [8]) it was 118 µM (≈ 540 µg/mL); in data set [3] (setting [9]) it was over 200 µM; in data set [3] (setting [10]), over 200 µM. For the same compound, the solubility at 18 h in data set [3] (setting [11]), in data set [3] (setting [12]), in data set [3] (setting [13]) and in data set [3] (setting [14]) was over 200 µM each time. The “ThT pH 4.0 lag time (h)” value in data set [4] (ThT fibrillation assay) stood at 6 h.
